Experimental data as given in US4085114A, “1,2-Benzoisoxazole derivatives and the production thereof” (Shionogi & Co., Ltd., priority 1975, dated 1978).
Converted amounts (≈) assume the structure as drawn.

Legend:
isolated atria = test: β-Blocking activities in the isolated atria (inhibition of positive inotropic effect of isoproterenol); type: cell-based, Guinea-pigs; settings: Cavia porcellus, read-out: fifty percent inhibitory concentration on the positive inotropic effect of isoproterenol (IC50), 1. Atria
Method: (§1) Guinea-pigs of either sex, weighing between 400 - 700 g each, were killed by a sharp blow on the head. Their atria and trachea were quickly excised and freed of excess tissues.
1. β-Blocking activities in the isolated atria:
The isolated atria were mounted in a 30 ml organ bath filled with Krebs-Ringer-bicarbonate solution, which was constantly bubbled with a gas mixture of 95% oxygen and 5% carbon dioxide at 30° C. Spontaneous contractions of the atria were isometrically recorded on the polygraph (RM-150, Nihon Kohden Kogyo) by mean of a F-D pick-up (N. K. K.) and the number of contractions in one minute was recorded on the home-made pulse counter triggered by the atrial contractions.

in vivo = settings: mouse, iv, female DS mice
isolated trachea = test: β-Blocking activities in the isolated trachea (inhibition of isoproterenol-induced relaxation of tracheal chain); type: cell-based, Guinea-pigs; settings: Cavia porcellus, read-out: fifty percent inhibitory concentration on the relaxation of tracheal chain by isoproterenol (IC50), 2. Trachea
Excerpt: as §1

SMILES: Cc1noc2cccc(OCC(O)CNC(C)C)c12 (centres unmarked) [3-methyl-4-(2-hydroxy-3-isopropylaminopropoxy)-1,2-benzisoxazole]
- IC50 (isolated atria): 25 ng/mL (≈ 0.0946 µM)
- LD50 (in vivo): 45 mg/kg

SMILES: Cc1noc2cccc(OCC(O)CNC(C)(C)C)c12 (centres unmarked) [3-methyl-4-(2-hydroxy-3-tert-butylaminopropoxy)-1,2-benzisoxazole]
- IC50 (isolated atria): 7.9 ng/mL (≈ 0.0284 µM)
- IC50 (isolated trachea): 1.1 ng/mL (≈ 0.00395 µM)
- LD50 (in vivo): 41.8 mg/kg
